Measurements published in patent US10463044B2, “Molecules that inhibit efflux pumps in multi-drug resistant bacteria and uses thereof” (priority 2014, dated 2019).
Like-named read-outs stand apart in the source and are kept apart here.

Assays:
[1] = test system: tetracycline resistant E. coli (tetA efflux pump); experiment: microbe, parasite or virus in culture; type: cell-based, Escherichia coli; details: microtiter, inhibition greater than 80% considered as the MIC
Source text: Among the organisms studied are several strains of the bacterium E. coli.
Minimal Inhibitory Concentration (MIC) Procedure. […] Streak the E. coli (DH5α or K-12 MG1655) strain on L.B agar plates. […] Prepare initial concentration of all the compounds required. • 5. […] Vortex each test tube for 2-3 seconds. • 9. […] Vortex each test tube for 2-3 seconds. • 11. […]
(§1) The minimal inhibitory concentrations (MIC) of all the compounds against three bacterial strains were first determined using the microtiter technique as described above. […] Antimicrobial property of hydraphiles is attributed to the disruption of ion homeostasis in bacteria.

[2] = test system: tetracycline resistant E. coli (tetA efflux pump); type: cell-based, Escherichia coli
Experimental: However, the bacterial strains used herein are multidrug resistant and the effect of hydraphiles on the inhibition of resistance mechanism (efflux pumps) was not known. The hydraphiles and the controls were tested next to see whether they could recover the activity of antibiotics against efflux pump expressing Gram-positive and Gram-negative bacteria. The MIC of antibiotics were determined in the presence of ½ [MIC] or ¼ [MIC] of each hydraphile or the controls used.

S. aureus 1199B = experiment: MIC, S. aureus 1199B; type: cell-based, Staphylococcus aureus
Source text: K. pneumoniae (ATCC BAA 2146; another Gram-negative bacterium) that expresses multiple classes of efflux pumps and NDM-1 gene was also used. This K. pneumoniae is a clinically relevant strain that was isolated from a patient. Gram-positive S. aureus 1199B was used that overexpresses the NorA efflux pump. Since ethidium bromide and norfloxacin are the substrates of efflux pumps, S. aureus 1199B was used to evaluate the activity of efflux pumps in the presence of the hydraphiles and other membrane disruptors.
as §1

NorA efflux pump [3] = target: T1, NorA efflux pump (Staphylococcus aureus, UniProt P0A0J7); experiment: Ethidium bromide accumulation in S. aureus 1199B; type: cell-based; details: compound at 4 μM
T1 construct: Gram-positive S. aureus 1199B was used that overexpresses the NorA efflux pump; endogenous in cells; host or cells: S. aureus 1199B
T1 sequence (P0A0J7 whole entry): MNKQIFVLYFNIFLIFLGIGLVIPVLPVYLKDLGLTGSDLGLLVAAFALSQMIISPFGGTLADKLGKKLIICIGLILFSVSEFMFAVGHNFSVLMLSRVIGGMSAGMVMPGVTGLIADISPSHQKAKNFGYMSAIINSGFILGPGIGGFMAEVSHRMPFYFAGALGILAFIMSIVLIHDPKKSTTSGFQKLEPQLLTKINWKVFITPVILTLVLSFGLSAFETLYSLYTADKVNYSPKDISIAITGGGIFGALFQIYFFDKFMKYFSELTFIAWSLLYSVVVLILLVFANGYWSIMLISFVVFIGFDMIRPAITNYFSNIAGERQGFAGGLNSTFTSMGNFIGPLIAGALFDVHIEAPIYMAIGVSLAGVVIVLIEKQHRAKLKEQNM
Experimental: To determine if the activity of efflux pump and accumulation of substrate in the cell cytoplasm was affected by hydraphiles, the S. aureus 1199B strain overexpressing the NorA efflux pump was used. Since ethidium bromide (EB) is one of the substrates of the norA efflux pump, fluorescence from DNA-EB complex was utilized to measure effect of hydraphiles on the norA efflux pump. First, EB was added to the S. aureus 1199B cells followed by hydraphiles or the controls. If the hydraphiles allows for EB accumulation in the cell cytoplasm, an increase in fluorescence would be expected. […] Next step was to determine if the accumulation of EB in the cell cytoplasm was due to the ability of hydraphiles to inhibit the activity of the norA efflux pump or just a simple membrane disruption mechanism.

NorA efflux pump [4] = target: T1, NorA efflux pump; experiment: Ethidium bromide release from preloaded S. aureus 1199B (efflux pump inhibition); type: cell-based; details: compound at 4 μM
Experimental: In a following experiment, the ability of hydraphiles to inhibit the activity of efflux pumps was determined. Specifically, the S. aureus cells were preloaded with EB using 100 μM CCCP. The cells were washed to remove extracellular EB and CCCP. The cells were then treated with hydraphiles. If hydraphiles inhibit the activity of efflux pumps, then there should be small or no change in fluorescence of EB-DNA complex. […] However, if there is no effect of hydraphiles on the efflux pump activity, EB would be released resulting in a decrease in fluorescence.

HeLa = experiment: Cytotoxicity of hydraphiles to HeLa (XTT assay); details: concentration not given
Cos-7 = experiment: Cytotoxicity of hydraphiles to Cos-7 (XTT assay); details: concentration not given
HEK-293 = experiment: Cytotoxicity of hydraphiles to HEK-293 (XTT assay); details: concentration not given
E. coli cells = experiment: Potassium release from E. coli cells (potassium selective electrode); details: control
Experimental: This change in potassium ion concentrations was measured using a Potassium selective electrode. […] Gramicidin D and valinomycin were used as controls. […] The potassium transport ability of C8-C14 hydraphiles was then tested at 4 μM.

Tet^R E. coli = experiment: Resistance development by sequential culturing
Source text: Sequential culturing method was used to determine if bacteria could develop resistance to the hydraphiles.

HEK-293 cells = type: cell-based, human
Source text: It could be argued that hydraphiles could also localize and disrupt the mammalian cell membranes. […] These hydraphiles increased the permeability of E. coli cells at ½ MIC concentrations. […] It is concluded that C8-C14 hydraphiles can selectively increase the permeability of bacterial cells without affecting the permeability of mammalian cells. […] DMSO and Triton X-100 were used as controls.

[5] = amphiphile 1 μM (½[MIC] for C14 hydraphile)
[6] = amphiphile/control 1700 μM (0.1%)

N#CC(C#N)=NNc1cccc(Cl)c1 [CCCP]
Minimal Inhibitory Concentrations (MIC) E. coli (Tet^R) ([1]; compound alone): 56 µM
Fold Enhancement [2, 5]: 1-fold
[Antibiotic] μM / Used (μM) in combination [2, 5]: 900 µM
Fold Enhancement ([2]; amphiphile/control 21 μM): 2-fold
[Tetracycline] μM in combination ([2]; amphiphile/control 21 μM): 450 µM
[Tetracycline] μM in combination ([2]; amphiphile/control 42 μM): 225 µM
Minimal Inhibitory Concentrations (MIC) S. aureus 1199B (S. aureus 1199B; compound alone, inhibition greater than 80% considered as the MIC): ≤4 µM
accumulation of ethidium bromide (EB) in the cell cytoplasm (NorA efflux pump [3]): much lower
inhibition of NorA activity, lower than that of hydraphiles (NorA efflux pump [4]): 30%
cytotoxicity to HeLa (control) (HeLa): cytotoxic
cytotoxicity to Cos-7 (control) (Cos-7): cytotoxic
cytotoxicity to HEK-293 (control) (HEK-293): cytotoxic

COC(=O)[C@H]1[C@H]2C[C@@H]3c4[nH]c5cc(OC)ccc5c4CCN3C[C@H]2C[C@@H](OC(=O)c2cc(OC)c(OC)c(OC)c2)[C@@H]1OC [Reserpine]
MIC ([1]; Escherichia coli, read-out: Minimal Inhibitory Concentrations (MIC) E. coli (Tet^R), compound alone): > 128 µM
Fold Enhancement ([2]; amphiphile/control 64 μM): 2-fold
[Tetracycline] μM in combination ([2]; amphiphile/control 64 μM): 450 µM
[Tetracycline] μM in combination ([2]; amphiphile/control 128 μM): 225 µM
MIC (S. aureus 1199B; Staphylococcus aureus, 1199B, read-out: Minimal Inhibitory Concentrations (MIC) S. aureus 1199B): > 128 µM
accumulation of ethidium bromide (EB) in the cell cytoplasm (NorA efflux pump [3]): much lower
inhibition of NorA activity, lower than that of hydraphiles (NorA efflux pump [4]): 30%

CC(C)[C@@H]1NC(=O)[C@H](C)OC(=O)[C@@H](C(C)C)NC(=O)[C@@H](C(C)C)OC(=O)[C@H](C(C)C)NC(=O)[C@H](C)OC(=O)[C@@H](C(C)C)NC(=O)[C@@H](C(C)C)OC(=O)[C@H](C(C)C)NC(=O)[C@H](C)OC(=O)[C@@H](C(C)C)NC(=O)[C@@H](C(C)C)OC1=O [Valinomycin, reference compound]
Fold Enhancement ([2]; amphiphile/control 20 μM): 2-fold
[Tetracycline] μM in combination ([2]; amphiphile/control 20 μM): 450 ± 100 µM
ion transport from E. coli (potassium) (E. coli cells): no change in ion transport

CN(C)c1ccc(O)c2c1C[C@H]1C[C@H]3[C@H](N(C)C)C(O)=C(C(N)=O)C(=O)[C@@]3(O)C(O)=C1C2=O [minocycline]
time in which Tet^R E. coli developed resistance (Tet^R E. coli): 4 to 6 days

Triton X-100 [reference compound]
[Tetracycline] μM in combination ([2]; amphiphile/control 20 μM): 450 ± 100 µM
Fold Enhancement [2, 6]: 2-fold
[Tetracycline] μM in combination [2, 6]: 450 ± 100 µM
viability and permeability of HEK-293 cells (HEK-293 cells): killed all the HEK-293 cells
